Experiments:
[1] = test system: eyeball pain; experiment: Eyeball pain in posttraumatic processes, VAS (Example 2.16); type: in vivo, human; conditions: eyeball lesions, instilled into the conjunctival sac
Excerpt: Evaluation of efficiency of the claimed substance for eyeball pain reduction in posttraumatic processes. The claimed substance solution was instilled into the conjunctival sac of patients with various lesions of the eyeball, including after surgery. As a reference, diclofenac eye drops were used. For efficiency evaluation the change in the pain sensation intensity on the visual analog scale (VAS) from 0 to 10 points was used.

[2] = test system: corneal sensitivity of the rabbit's eye; experiment: Topical (corneal) anesthetic activity in rabbit's eye (Example 2.1); type: in vivo, rabbits; conditions: 0.5% aqueous solution into the conjunctival sac of the rabbit's eye
Method: A study to determine anesthetic activity was carried out in unanesthetized rabbits, which were placed in a special box with a hole to restrain the animal's head. The study was conducted to determine the threshold of sensitivity of the rabbit's eye to a tactile impact. For this purpose, a thin metal wire was used without injuring the cornea. The examined compound and the reference drug (oxybuprocaine) were administered into the conjunctival sac of the rabbit's eye in the form of a 0.5% aqueous solution with the total volume of up to 0.4 ml. Determination of topical anaesthesia was performed starting from the 1st minute of the study. The absence of the blinking reflex for 1 min (100 touches) was considered as an indicator of full anesthesia. Based on the collected data reflecting the changes in corneal sensitivity under the influence of the drugs, the beginning, the duration of complete (100%) anesthesia and the total duration of anesthesia were determined.
The relative activity of the tested compounds was calculated according to the Valet equation. The Rainier index is 852.4 for the claimed preparation and 63.5 for the reference preparation. The duration of anesthesia was 234 minutes for the claimed preparation and 24 min for oxibuprocaine.

[3] = test system: postoperative pain; experiment: Postoperative pain syndrome after laparoscopic cholecystectomy, VAS (Example 2.8); type: in vivo, human
Method: Evaluation of efficiency of the claimed substance for pain reduction was studied in patients suffering the postoperative pain syndrome. After laparoscopic cholecystectomy the claimed substance was applied onto the affected areas of the patients in the form of a solution/spray in a concentration of 0.01% to 10%. As a comparison preparation for surface anesthesia oxybuprocaine was used. To evaluate efficiency the change in the pain sensation intensity on the visual analog scale (VAS) in 1 minute after application/administration of the preparation and after 2 days in case of everyday application was used.

[4] = test system: bleeding from liver wounds; experiment: Hemostatic activity together with aluminum sulfate gel or silver nitrate solution (Example 1.6); type: in vivo, rabbits
Method: The influence of the claimed substance on the hemostatic function was examined in rabbits of both sexes weighing 2000-4000 g. The experiments were carried out under general anesthesia. The animals underwent a laparotomy with a section made along the white line of the abdomen. The intestine was exteriorized into the wound and limited by wipes moistened with 0.9% sodium chloride solution (temperature […]), as well as the front surface of the liver. A superficial wound of the liver by the area of 1.5 cm^2 and the depth of 0.1 cm was inflicted by means of a razor. […] An animal model was used in the experiment, as described in Example No. 4. Hemostatic activity was evaluated by the change of the bleeding intensity.

[5] = test system: capillary-parenchymal bleeding from liver wounds; experiment: Hemostatic activity of solution or spray on superficial liver wound (Example 1.1); type: in vivo, rabbits
Method: The influence of the claimed substance on the hemostatic function was examined in rabbits of both sexes weighing 2000-4000 g. The experiments were carried out under general anesthesia. The animals underwent a laparotomy with a section made along the white line of the abdomen. The intestine was exteriorized into the wound and limited by wipes moistened with 0.9% sodium chloride solution (temperature […]), as well as the front surface of the liver. A superficial wound of the liver by the area of 1.5 cm^2 and the depth of 0.1 cm was inflicted by means of a razor.
Arrest of the capillary-parenchymal bleeding was carried out by uniform application of a 1% solution or a spray of the claimed substance on the entire area of the wound surface. At that, iron subsulfat was used for comparison of the bleeding arrest time. Hemostatic activity was evaluated by the change of the bleeding intensity.

[6] = test system: pain with soft corn; experiment: Anesthetic activity, pain with soft corn, VAS (second Example 1.8); type: in vivo; conditions: soft corns
Method: Evaluation of the claimed substance's anesthetic activity was studied when dispersing a spray containing 0.01-10% of the preparation, or when applied at a concentration of 0.01% to 10% onto a bandaging material or a plaster for application onto the wound surface. An iron subsulfate solution was used as a reference. For efficiency evaluation the change in the pain sensation intensity on the visual analog scale (VAS) from 0 to 10 points in 1 minute after application of the product and after 2 days in everyday use was used.

[7] = test system: itch at genital candidiasis; experiment: Itch reduction at genital candidiasis, ISS (Example 2.3); type: in vivo; conditions: rounded to the higher value
Method: Evaluation of the claimed substance's anesthetic activity to reduce itch at genital candidiasis was studied when applied onto mucosae in the form of a 0.01% to 10% solution or by administering vaginal suppositories containing the claimed substance. To evaluate the efficiency the change in the itch sensation intensity on the Itch Severity Score (ISS) in 1 minute after application/administration of the product and after 5 days in case of everyday administration was used.

[8] = test system: chest pain and bloody sputum; experiment: Inhalation in chronic obstructive pulmonary disease: chest pain VAS and blood in sputum (Example 2.13); type: in vivo, human; conditions: for Pain sensation intensity on a visual analog scale: chronic obstructive pulmonary disease, inhalation by nebulizer
[9] = test system: bleeding and pain after medical interventions; experiment: Bleeding and pain in ENT, upper respiratory and digestive systems interventions (Example 2.17); type: in vivo, human
Method: Evaluation of the claimed substance efficiency for reduction of bleeding and pain in ENT, upper respiratory and digestive systems pathologies, in the course of instrumentation studies of these systems. Patients with various medical interventions after treatment with haemostatic purpose and pain reduction were treated with the claimed preparation. An iron subsulfate solution was used as a reference. For efficiency evaluation the change in the pain sensation intensity on the visual analog scale (VAS) from 0 to 10 points was used.

[10] = Nanostructure by dynamic light scattering; type: physicochemical; conditions: preparation concentration 0.05 mg/ml
Method: (§1) The nanostructure is determined by the methods of dynamic light scattering using a Malvern Instruments Nanosizer Nano-ZS particle size analyzer and a FEI Tecnai G212Cryo12 transmission electron microscope enabling tp cool the samples at the boiling point of liquid nitrogen.

[11] = Nanostructure by electron-microscopic examination; type: physicochemical
Method: as §1

[12] = 1 minute after application of the preparation

O=C(O)Cc1ccccc1Nc1c(Cl)cccc1Cl [Diclofenac solution, Diclofenac]
Pain sensation intensity on a visual analog scale ([1]; before treatment): 6.9 +/− 0.8 points
Pain sensation intensity on a visual analog scale ([1]; in 1 minute): 7.1 +/− 0.5 points
Pain sensation intensity on a visual analog scale ([1]; in 10 minute): 7.2 +/− 0.6 points

CCCCOc1cc(C(=O)OCCN(CC)CC)ccc1N [Oxybuprocaine, oxybuprocaine]
Rainier index (relative activity, Valet equation) [2]: 63.5
duration of anesthesia [2]: 24 min
Pain sensation intensity on a visual analog scale [3, 12]: 2.2 +/− 0.4
Pain sensation intensity on a visual analog scale ([3]; before treatment): 7.6 +/− 0.8
Pain sensation intensity on a visual analog scale ([3]; in 2 days (daily administration)): 0.5 +/− 0.1

O=[N+]([O-])[O-].[Ag+] [Silver nitrate solution (1:200), Silver nitrate]
Relative intensity of bleeding ([4]; 120 seconds after application): 1035.7 ± 119.0 mg/min
Relative intensity of bleeding ([4]; before application): 1437.5 ± 141.6 mg/min

Ferric Subsulfate [iron subsulphate]
Relative intensity of bleeding from liver wounds ([5]; 180 seconds after application): 652.6 ± 108.2 mg/min
Relative intensity of bleeding from liver wounds ([5]; before application): 1326.4 ± 128.5 mg/min
Pain sensation intensity on a visual analog scale ([6]; before treatment): 4.2 +/− 0.2 points
Pain sensation intensity on a visual analog scale ([6]; in 1 minute): 4.5 +/− 0.4 points
Pain sensation intensity on a visual analog scale ([6]; in 2 days, everyday use): 3.9 +/− 0.3 points
Itch intensity on the Itch Severity Score (ISS) scale [7, 12]: 4 points
Itch intensity on the Itch Severity Score (ISS) scale ([7]; in 5 days (for daily administration)): 5 points
Pain sensation intensity on a visual analog scale ([8]; before treatment): 4.2 +/− 0.7
Pain sensation intensity on a visual analog scale ([8]; in 1 minute): 4.4 +/− 0.7
Pain sensation intensity on a visual analog scale ([8]; in 5 days): 4.2 +/− 0.7
Presence of bloody sputum ([8]; in 1 minute): +++
Pain sensation intensity on a visual analog scale ([9]; before treatment): 4.7 +/− 0.5 points
Pain sensation intensity on a visual analog scale ([9]; in 1 minute): 4.5 +/− 0.4 points
Pain sensation intensity on a visual analog scale ([9]; in 10 minute): 4.6 +/− 0.5 points

polyammonia methanediamine chloride [the claimed preparation]
Rainier index (relative activity, Valet equation) [2]: 852.4
duration of anesthesia [2]: 234 min
size of globules in solution [10]: 10-15 nm
size of globules [11]: 10-15 nm
